According to PubChem BioAssay AID1918993 (Molecular Pharmacology Branch, DTP, NCI, 2023):

Tested on: 233499-124-R-J3-PDC complex spheroid growth
Experiment: Anticancer human tumor 233499-124-R-J3-PDC patient-derived colon adenocarcinoma cell line growth inhibition [AhR]
Conditions: for IC50: curve of first compound; for viability, T/C: stronger effect = lower value
Summary of the method: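 Agents were dosed in half-log steps down from roughly clinical Cmax, or from 10 microM where Cmax was unknown, alone and with AhR antagonists. Read-out: percent test/control growth of tumor spheroids containing HUVEC and MSC stromal cells.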

[1] = second compound 0.1 µM, first compound 0.000949 µM
[2] = second compound 0.1 µM, first compound 0.003 µM
[3] = second compound 0.1 µM, first compound 0.00949 µM
[4] = second compound 0.1 µM, first compound 0.03 µM
[5] = second compound 0.1 µM, first compound 0.0949 µM
[6] = second compound 0.1 µM, first compound 0.3 µM
[7] = second compound 0.316 µM, first compound 0.000949 µM
[8] = second compound 0.316 µM, first compound 0.003 µM
[9] = second compound 0.316 µM, first compound 0.00949 µM
[10] = second compound 0.316 µM, first compound 0.03 µM
[11] = second compound 0.316 µM, first compound 0.0949 µM
[12] = second compound 0.316 µM, first compound 0.3 µM
[13] = second compound 1 µM, first compound 0.000949 µM
[14] = second compound 1 µM, first compound 0.003 µM
[15] = second compound 1 µM, first compound 0.00949 µM
[16] = second compound 1 µM, first compound 0.03 µM
[17] = second compound 1 µM, first compound 0.0949 µM
[18] = second compound 1 µM, first compound 0.3 µM
[19] = second compound 3.16 µM, first compound 0.000949 µM
[20] = second compound 3.16 µM, first compound 0.003 µM
[21] = second compound 3.16 µM, first compound 0.00949 µM
[22] = second compound 3.16 µM, first compound 0.03 µM
[23] = second compound 3.16 µM, first compound 0.0949 µM
[24] = second compound 3.16 µM, first compound 0.3 µM
[25] = second compound 10 µM, first compound 0.000949 µM
[26] = second compound 10 µM, first compound 0.003 µM
[27] = second compound 10 µM, first compound 0.00949 µM
[28] = second compound 10 µM, first compound 0.03 µM
[29] = second compound 10 µM, first compound 0.0949 µM
[30] = second compound 10 µM, first compound 0.3 µM
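Note: spheroids exposed to agents for seven days before reading.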

`CC(C)CC(NC(=O)C(Cc1ccccc1)NC(=O)c1cnccn1)B(O)O` (stereo not given) + Cc1ccccc1N=Nc1ccc(NC(=O)c2ccnn2C)c(C)c1 was tested, and the IC50 (second compound 0.1 µM) was 16.3 nM, the IC50 (second compound 0.316 µM) was 16.5 nM and the IC50 (second compound 1 µM) was 18.2 nM. For the same compound, the IC50 (second compound 3.16 µM) was 15.6 nM, the IC50 (second compound 10 µM) was 17.3 nM and the viability, T/C [1] was 103%. For the same compound, the viability, T/C [2] was 110%, the viability, T/C [3] was 94.1% and the viability, T/C [4] was 0.26%. It also gave a viability, T/C [5] of 0.06%, a viability, T/C [6] of 0.13% and a viability, T/C [7] of 99.4%. For the same compound, the viability, T/C [8] was 108%, the viability, T/C [9] was 94.5% and the viability, T/C [10] was 1.73%. The viability, T/C [11] was 0.06%, the viability, T/C [12] was 0.13% and the viability, T/C [13] was 111%. The viability, T/C [14] was 110%, the viability, T/C [15] was 98.1% and the viability, T/C [16] was 12.9%. For the same compound, the viability, T/C [17] was 0.64%, the viability, T/C [18] was 0.14% and the viability, T/C [19] was 111%. The viability, T/C [20] was 96.9%, the viability, T/C [21] was 83.8% and the viability, T/C [22] was 5.62%. The viability, T/C [23] was 0.09%, the viability, T/C [24] was 0.14% and the viability, T/C [25] was 106%. It also gave a viability, T/C [26] of 108%, a viability, T/C [27] of 105% and a viability, T/C [28] of 0.37%. The viability, T/C [29] was 0.18% and the viability, T/C [30] was 0.22%.

`CCc1c2c(nc3ccc(O)cc13)-c1cc3c(c(=O)n1C2)COC(=O)[C@]3(O)CC` + Cc1ccccc1N=Nc1ccc(NC(=O)c2ccnn2C)c(C)c1 gave an IC50 (second compound 0.1 µM) of over 300 nM, an IC50 (second compound 0.316 µM) of over 300 nM and an IC50 (second compound 1 µM) of over 300 nM. For the same compound, the IC50 (second compound 3.16 µM) was over 300 nM, the IC50 (second compound 10 µM) was over 300 nM and the viability, T/C [1] was 95.3%. The viability, T/C [2] was 103%, the viability, T/C [3] was 102% and the viability, T/C [4] was 81.8%. It also gave a viability, T/C [5] of 90.4%, a viability, T/C [6] of 76.6% and a viability, T/C [7] of 87.6%. The viability, T/C [8] was 91.4%, the viability, T/C [9] was 88.5% and the viability, T/C [10] was 75.4%. The viability, T/C [11] was 77.8%, the viability, T/C [12] was 88% and the viability, T/C [13] was 105%. For the same compound, the viability, T/C [14] was 113%, the viability, T/C [15] was 102% and the viability, T/C [16] was 78.3%. The viability, T/C [17] was 84.5%, the viability, T/C [18] was 86.2% and the viability, T/C [19] was 91.5%. The viability, T/C [20] was 105%, the viability, T/C [21] was 86.5% and the viability, T/C [22] was 86.9%. It also gave a viability, T/C [23] of 91.8%, a viability, T/C [24] of 73.4% and a viability, T/C [25] of 107%. The viability, T/C [26] was 90.6%, the viability, T/C [27] was 104% and the viability, T/C [28] was 103%. The viability, T/C [29] was 106% and the viability, T/C [30] was 101%.

For `Nc1ccccc1NC(=O)c1ccc(CNC(=O)OCc2cccnc2)cc1` + Cc1ccccc1N=Nc1ccc(NC(=O)c2ccnn2C)c(C)c1, the IC50 (second compound 0.1 µM) was 5080 nM, the IC50 (second compound 0.316 µM) was 5640 nM and the IC50 (second compound 1 µM) was 5440 nM. The IC50 (second compound 3.16 µM) was 5350 nM, the IC50 (second compound 10 µM) was 4810 nM and the viability, T/C (second compound 0.1 µM, first compound 0.0316 µM) was 116%. For the same compound, the viability, T/C (second compound 0.1 µM, first compound 0.1 µM) was 93.3%, the viability, T/C (second compound 0.1 µM, first compound 0.316 µM) was 106% and the viability, T/C (second compound 0.1 µM, first compound 1 µM) was 129%. For the same compound, the viability, T/C (second compound 0.1 µM, first compound 3.16 µM) was 80%, the viability, T/C (second compound 0.1 µM, first compound 10 µM) was 7.02% and the viability, T/C (second compound 0.316 µM, first compound 0.0316 µM) was 116%. The viability, T/C (second compound 0.316 µM, first compound 0.1 µM) was 103%, the viability, T/C (second compound 0.316 µM, first compound 0.316 µM) was 119% and the viability, T/C (second compound 0.316 µM, first compound 1 µM) was 113%. For the same compound, the viability, T/C (second compound 0.316 µM, first compound 3.16 µM) was 93%, the viability, T/C (second compound 0.316 µM, first compound 10 µM) was 7.54% and the viability, T/C (second compound 1 µM, first compound 0.0316 µM) was 116%. It also gave a viability, T/C (second compound 1 µM, first compound 0.1 µM) of 107%, a viability, T/C (second compound 1 µM, first compound 0.316 µM) of 117% and a viability, T/C (second compound 1 µM, first compound 1 µM) of 130%. For the same compound, the viability, T/C (second compound 1 µM, first compound 3.16 µM) was 86.4%, the viability, T/C (second compound 1 µM, first compound 10 µM) was 9.07% and the viability, T/C (second compound 3.16 µM, first compound 0.0316 µM) was 112%. For the same compound, the viability, T/C (second compound 3.16 µM, first compound 0.1 µM) was 106%, the viability, T/C (second compound 3.16 µM, first compound 0.316 µM) was 118% and the viability, T/C (second compound 3.16 µM, first compound 1 µM) was 113%. The viability, T/C (second compound 3.16 µM, first compound 3.16 µM) was 86.8%, the viability, T/C (second compound 3.16 µM, first compound 10 µM) was 6.35% and the viability, T/C (second compound 10 µM, first compound 0.0316 µM) was 93.4%. The viability, T/C (second compound 10 µM, first compound 0.1 µM) was 108%, the viability, T/C (second compound 10 µM, first compound 0.316 µM) was 105% and the viability, T/C (second compound 10 µM, first compound 1 µM) was 109%. For the same compound, the viability, T/C (second compound 10 µM, first compound 3.16 µM) was 74.4% and the viability, T/C (second compound 10 µM, first compound 10 µM) was 7.59%.
